# Measurements from publication PMC3174232, “Identification of a Negative Allosteric Site on Human α4β2 and α3β4 Neuronal Nicotinic Acetylcholine Receptors” (PLoS ONE, 2011).
# Read-outs that look alike come from different tables or passages of the source.
# Legend:
# hα4β2WT nAChRs = target: T1, hα4β2WT nAChRs (Homo sapiens, UniProt P17787+P43681); experiment: Calcium accumulation assay, HEK ts201 cells transiently expressing wild-type hα4β2 nAChRs; assay type: cell-based
# T1 construct: Human nAChR α4 and β2 full-length cDNAs in the vector pSP64 (poly A); expressed in transfected cells; host or cells: HEK ts201 cells
# Description: (§1) Calcium accumulation assays were performed as described previously with slight modifications. Briefly, HEK ts201 cells, transiently expressing hα4β2WT nAChRs or hα4β2M nAChRs, were plated on 96-well plates at a density of 2.6×10^5 cells per well. Twenty-four hours after plating, the cells were washed and then incubated with fluo-4-AM for 30 minutes at 37°C followed by 30 minutes at 24°C. After incubation, cells were washed and fluorescence was measured at ∼0.7 second intervals using a fluid handling integrated fluorescence plate reader (Flex Station, Molecular Devices, Sunnyvale, CA). […] Functional responses were quantified by first calculating the net fluorescence changes (the difference between control sham-treated and control agonist-treated groups). […] Results were calculated from the number of observations (n) performed in triplicate. Curve fitting was performed by Prism software (GraphPad, San Diego, CA). EC50 values, IC50 values, and Hill coefficients were obtained by averaging values generated from each individual concentration-response curve. EC50 values and IC50 values were expressed as geometric means (95% confidence limits). Experimental values were compared using the t-test (p<0.005), as indicated.
# (§2) Human nAChR α4 and β2 full-length cDNAs in the vector pSP64 (poly A) were obtained from Dr. Jon Lindstrom (University of Pennsylvania) and used as the template for mutagenesis (β2) and for transient expression (α4 and β2). A single mutation was made in the β2 subunit using the Quik Change Lightning Multi Site-Directed Mutagenesis Kit (Stratagene) following the manufacturers instructions. Primers were designed using the QuikChange Primer Design Program (Stratagene) and Oligo 4.0 (National Biosciences) and synthesized by Invitrogen. Primers were designed to replace the threonine residue at position 58 in the hβ2 subunit with a lysine found at the similar position in the hβ4 subunit. The following primer was designed to change the threonine (ACC) at position 58 in the β2 subunit to lysine (AAG): β2 mutant 5′-[…]-3′. The underlined nucleotides defined the mutation. Primers were also designed to replace the phenylalanine residue at position 118 in the hβ2 subunit with a leucine found at the similar position in the hβ4 subunit. The following primer was designed to change the phenylalanine (TTC) at position 118 in the β2 subunit to leucine (TTG): 5′-[…]-3′ and 5′- […]-3′. […] The mutant hβ2 cDNAs were subcloned into pcDNA 3.1+Zeo (Invitrogen). The wild type hα4 and hβ2 cDNAs were also subcloned into the pcDNA 3.1+ and pcDNA 3.1+ Zeo vectors respectively. All cDNA clones were completely sequenced using a 3730 DNA Analyzer (Applied Biosystems) at the Ohio State University Plant-Microbe Genomics Facility. DNAs used for transfection were purified using PureLink High Pure Mini or Midi Kits (Invitrogen). HEK ts201 cells (kind gift of Dr. Rene Anand, Ohio State University Department of Pharmacology) were transiently transfected with wild-type hα4 mutant hβ2 or wild-type hα4β2 cDNAs using Lipofectamine 2000 (Invitrogen) in 60 mm dishes. After 8 hours, the cells were replated into 96 well dishes for the intracellular calcium accumulation assays.
# hα4β2-T58K nAChRs = target: T2, hα4β2-T58K nAChRs (Homo sapiens, UniProt P17787+P43681, T84K); experiment: Calcium accumulation assay, HEK ts201 cells transiently expressing hα4β2 β2-T58K mutant nAChRs; assay type: cell-based
# T2 construct: Human nAChR α4 and β2 full-length cDNAs in the vector pSP64 (poly A); expressed in transfected cells; host or cells: HEK ts201 cells
# Description: as §1, §2
# hα4β2-F118L nAChRs = target: T3, hα4β2-F118L nAChRs (Homo sapiens, UniProt P17787+P43681, F144L); experiment: Calcium accumulation assay, HEK ts201 cells transiently expressing hα4β2 β2-F118L mutant nAChRs; assay type: cell-based
# T3 construct: Human nAChR α4 and β2 full-length cDNAs in the vector pSP64 (poly A); expressed in transfected cells; host or cells: HEK ts201 cells
# Description: as §1, §2
# [1] = Solubility limit in functional assay; assay type: physicochemical; conditions: read-out: highest soluble test concentration
# human α3β4 nAChRs = conditions: tested at concentrations up to 100 µM; cited from earlier work
# hα4β2 nAChRs = conditions: introduction, low µM range; cited from earlier work
# [2] = target: recombinant hα4β2 receptors; parameters: method as in PMID 8996215, PMID 11044726, PMID 9454827; conditions: read-out: expt. potency, EC50, cited from earlier work
# [3] = target: recombinant hα3β4 receptors; parameters: method as in PMID 8996215, PMID 11044726, PMID 9454827; conditions: read-out: expt. potency, EC50, cited from earlier work
# T2 sequence (P43681 27-627, stated change not applied): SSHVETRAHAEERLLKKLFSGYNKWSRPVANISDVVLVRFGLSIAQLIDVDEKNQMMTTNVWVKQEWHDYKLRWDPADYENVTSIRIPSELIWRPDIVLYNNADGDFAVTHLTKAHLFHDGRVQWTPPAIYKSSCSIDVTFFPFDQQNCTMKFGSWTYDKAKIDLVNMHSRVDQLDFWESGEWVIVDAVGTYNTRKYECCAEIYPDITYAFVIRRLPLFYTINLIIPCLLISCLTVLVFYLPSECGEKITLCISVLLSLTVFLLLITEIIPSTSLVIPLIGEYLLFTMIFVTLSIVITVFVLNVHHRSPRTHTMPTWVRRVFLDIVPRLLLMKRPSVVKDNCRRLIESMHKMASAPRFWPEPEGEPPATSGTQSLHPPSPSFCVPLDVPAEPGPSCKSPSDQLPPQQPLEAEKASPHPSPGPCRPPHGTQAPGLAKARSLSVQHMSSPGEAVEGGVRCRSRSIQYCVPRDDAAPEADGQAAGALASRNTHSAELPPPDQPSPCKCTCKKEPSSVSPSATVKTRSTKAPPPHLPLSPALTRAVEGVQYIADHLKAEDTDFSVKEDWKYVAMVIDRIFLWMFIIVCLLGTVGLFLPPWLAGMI
# T2 sequence (P17787 26-502 T84K): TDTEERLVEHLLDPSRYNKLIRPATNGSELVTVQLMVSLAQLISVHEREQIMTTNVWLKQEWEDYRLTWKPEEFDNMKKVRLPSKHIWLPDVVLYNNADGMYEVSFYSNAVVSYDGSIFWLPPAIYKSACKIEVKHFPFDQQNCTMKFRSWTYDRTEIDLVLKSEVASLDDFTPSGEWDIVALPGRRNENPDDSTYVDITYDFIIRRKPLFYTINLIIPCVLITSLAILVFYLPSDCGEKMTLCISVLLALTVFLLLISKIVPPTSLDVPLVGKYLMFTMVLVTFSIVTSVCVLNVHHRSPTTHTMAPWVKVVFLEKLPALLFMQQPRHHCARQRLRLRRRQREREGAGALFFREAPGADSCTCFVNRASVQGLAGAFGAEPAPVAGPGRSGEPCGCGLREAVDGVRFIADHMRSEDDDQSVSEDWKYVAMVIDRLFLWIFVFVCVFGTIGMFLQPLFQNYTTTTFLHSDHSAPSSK
# T3 sequence (P43681 27-627, stated change not applied): as the sequence (P43681 27-627, stated change not applied) above
# T3 sequence (P17787 26-502 F144L): as the sequence (P17787 26-502 T84K) above, with K59T, F119L counted along it
# T1 sequence (P43681 29-627 limits assumed): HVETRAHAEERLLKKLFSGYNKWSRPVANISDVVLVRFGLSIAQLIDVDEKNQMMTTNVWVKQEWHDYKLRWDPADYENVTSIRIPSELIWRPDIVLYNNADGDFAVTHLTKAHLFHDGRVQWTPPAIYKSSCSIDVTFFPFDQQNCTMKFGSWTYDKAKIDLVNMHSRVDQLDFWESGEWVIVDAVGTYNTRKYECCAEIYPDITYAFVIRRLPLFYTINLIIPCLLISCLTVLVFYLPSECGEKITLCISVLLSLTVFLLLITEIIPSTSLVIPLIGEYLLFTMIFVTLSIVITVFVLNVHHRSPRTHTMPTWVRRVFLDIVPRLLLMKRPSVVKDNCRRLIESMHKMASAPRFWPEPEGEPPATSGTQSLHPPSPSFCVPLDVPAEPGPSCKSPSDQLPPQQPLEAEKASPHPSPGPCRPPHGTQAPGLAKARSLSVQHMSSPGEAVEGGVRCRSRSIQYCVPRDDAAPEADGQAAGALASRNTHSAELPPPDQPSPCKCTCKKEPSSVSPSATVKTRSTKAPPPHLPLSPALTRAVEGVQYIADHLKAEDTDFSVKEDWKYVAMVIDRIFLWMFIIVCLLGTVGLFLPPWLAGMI
# T1 sequence (P17787 26-502): as the sequence (P17787 26-502 T84K) above, with K59T counted along it
Compound,"n H, Hill coefficient (hα4β2WT nAChRs; hα4β2-WT nAChRs)",IC50 (hα4β2WT nAChRs; read-out: IC50) [µM],"n H, Hill coefficient (hα4β2-T58K nAChRs; hα4β2-T58K nAChRs)",IC50 (hα4β2-T58K nAChRs; read-out: IC50) [µM],IC50 (hα4β2-F118L nAChRs) [µM],EC50 ([2]; hα4β2) [µM],EC50 ([3]; hα3β4) [µM],"n H, Hill coefficient (hα4β2-F118L nAChRs; hα4β2-F118L nAChRs)",other results
O=C(OCC1CCCN(CCCc2ccccc2)C1)c1ccccc1-c1ccccc1 (stereo not shown) [KAB-18],−1.2,8.5,−1.0,71.8,> 100,–,–,–,"decrease in potency, β2T58K mutant vs wild-type (hα4β2-T58K nAChRs; ratio of IC50 71.8 µM (T58K) to 8.5 µM (WT)): eight-fold decrease; inhibitory activity on F118L mutant (hα4β2-F118L nAChRs; at concentrations up to 100 µM): loss of inhibitory activity; solubility [1]: ≤ 100 µM; functional activity on human α3β4 nAChRs (human α3β4 nAChRs): no functional activity; potency (inhibition of hα4β2 nAChRs) (hα4β2 nAChRs): 10 µM"
CC(=O)OCC[N+](C)(C)C [acetylcholine],–,–,–,–,–,100,203,–,–
COc1cc2c3cc1Oc1cc(ccc1O)C[C@@H]1c4c(cc(OC)c(O)c4Oc4ccc(cc4)C[C@@H]3N(C)CC2)CC[N+]1(C)C [d-tubocurarine],–,–,–,–,6.5,–,–,–,"IC50 (hα4β2WT nAChRs): 6.3 µM; n H, Hill coefficient (hα4β2WT nAChRs): −1.0; IC50 (hα4β2-T58K nAChRs): 6.2 µM; n H, Hill coefficient (hα4β2-T58K nAChRs): −0.6; n H, Hill coefficient (hα4β2-F118L nAChRs): −0.9"
Clc1ccc(C2CC3CCC2N3)cn1 (stereo not shown) [epibatidine],0.9,–,0.7,–,–,0.043,0.151,0.8,–
CNC1(C)C2CCC(C2)C1(C)C (stereo not shown) [mecamylamine],−1.4,0.2,−0.6,0.2,–,–,–,−1.1,IC50 (hα4β2-F118L nAChRs; read-out: IC50): 0.4 µM
CN1CCC[C@H]1c1cccnc1 [nicotine],–,–,–,–,–,–,–,–,EC50 [2]: 3.5 µM; EC50 [3]: 40.3 µM
